# In PubChem BioAssay (NCI):
#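 Following 48 hours of exposure in 96-well plates, responses at five concentrations were used to interpolate endpoints linearly. TGI: total growth inhibition.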
# Columns and labels:
# Assay in all cases: NCI tumour cell line growth inhibition, 48 h
# HOP-62 NSCLC = tested on: HOP-62 NSCLC
# SK-OV-3 ovarian = tested on: SK-OV-3 ovarian
# A498 renal = tested on: A498 renal
# NCI-H226 lung = tested on: NCI-H226 lung
# EKVX NSCLC = tested on: EKVX NSCLC
# DMS 273 small cell lung = tested on: DMS 273 small cell lung
# RXF 393 renal = tested on: RXF 393 renal
# SR leukemia = tested on: SR leukemia
# DMS 114 small cell lung = tested on: DMS 114 small cell lung
# 786-0 renal = tested on: 786-0 renal
# SK-MEL-2 melanoma = tested on: SK-MEL-2 melanoma
# SK-MEL-28 melanoma = tested on: SK-MEL-28 melanoma
# MOLT-4 leukemia = tested on: MOLT-4 leukemia
# UACC-257 melanoma = tested on: UACC-257 melanoma
# SN12C renal = tested on: SN12C renal
# SF-539 CNS = tested on: SF-539 CNS
# HOP-18 NSCLC = tested on: HOP-18 NSCLC
# RPMI-8226 leukemia = tested on: RPMI-8226 leukemia
# UO-31 renal = tested on: UO-31 renal
# A549 NSCLC = tested on: A549 NSCLC
# OVCAR-8 ovarian = tested on: OVCAR-8 ovarian
# LOX IMVI melanoma = tested on: LOX IMVI melanoma
# SNB-78 CNS = tested on: SNB-78 CNS
# OVCAR-3 ovarian = tested on: OVCAR-3 ovarian
# LXFL 529 NSCLC = tested on: LXFL 529 NSCLC
# SF-295 CNS = tested on: SF-295 CNS
# ACHN renal = tested on: ACHN renal
# HCT-15 colon = tested on: HCT-15 colon
# HCC-2998 colon = tested on: HCC-2998 colon
# DLD-1 colon = tested on: DLD-1 colon
# HT29 colon = tested on: HT29 colon
# KM20L2 colon = tested on: KM20L2 colon
# OVCAR-5 ovarian = tested on: OVCAR-5 ovarian
# SK-MEL-5 melanoma = tested on: SK-MEL-5 melanoma
# HL-60(TB) leukemia = tested on: HL-60(TB) leukemia
# K-562 leukemia = tested on: K-562 leukemia
# MALME-3M melanoma = tested on: MALME-3M melanoma
# NCI-H460 lung = tested on: NCI-H460 lung
# NCI-H23 lung = tested on: NCI-H23 lung
# COLO 205 colon = tested on: COLO 205 colon
# SNB-19 CNS = tested on: SNB-19 CNS
# HCT-116 colon = tested on: HCT-116 colon
# TK-10 renal = tested on: TK-10 renal
# U251 CNS = tested on: U251 CNS
# UACC-62 melanoma = tested on: UACC-62 melanoma
# CCRF-CEM leukemia = tested on: CCRF-CEM leukemia
# M14 melanoma = tested on: M14 melanoma
# IGROV1 ovarian = tested on: IGROV1 ovarian
# SNB-75 CNS = tested on: SNB-75 CNS
# OVCAR-4 ovarian = tested on: OVCAR-4 ovarian
# KM12 colon = tested on: KM12 colon
# XF 498 CNS = tested on: XF 498 CNS
# M19-MEL melanoma = tested on: M19-MEL melanoma
# SF-268 CNS = tested on: SF-268 CNS
# HOP-92 NSCLC = tested on: HOP-92 NSCLC
# NCI-H522 lung = tested on: NCI-H522 lung
# SW-620 colon = tested on: SW-620 colon
# CAKI-1 renal = tested on: CAKI-1 renal
# RXF-631 renal = tested on: RXF-631 renal
smiles,measurement,setting,value
O=P1(c2ccccc2)CCCCC1,TGI,HOP-62 NSCLC,> 100 µM
same,TGI,SK-OV-3 ovarian,> 100 µM
same,TGI,A498 renal,> 100 µM
same,TGI,NCI-H226 lung,> 100 µM
same,TGI,EKVX NSCLC,> 100 µM
same,TGI,DMS 273 small cell lung,> 100 µM
same,TGI,RXF 393 renal,> 100 µM
same,TGI,SR leukemia,> 100 µM
same,TGI,DMS 114 small cell lung,> 100 µM
same,TGI,786-0 renal,> 100 µM
same,TGI,SK-MEL-2 melanoma,> 100 µM
same,TGI,SK-MEL-28 melanoma,> 100 µM
same,TGI,MOLT-4 leukemia,> 100 µM
same,TGI,UACC-257 melanoma,> 100 µM
same,TGI,SN12C renal,> 100 µM
same,TGI,SF-539 CNS,> 100 µM
same,TGI,HOP-18 NSCLC,> 100 µM
same,TGI,RPMI-8226 leukemia,> 100 µM
same,TGI,UO-31 renal,> 100 µM
same,TGI,A549 NSCLC,> 100 µM
same,TGI,OVCAR-8 ovarian,> 100 µM
same,TGI,LOX IMVI melanoma,> 100 µM
same,TGI,SNB-78 CNS,> 100 µM
same,TGI,OVCAR-3 ovarian,> 100 µM
same,TGI,LXFL 529 NSCLC,> 100 µM
same,TGI,SF-295 CNS,> 100 µM
same,TGI,ACHN renal,> 100 µM
same,TGI,HCT-15 colon,> 100 µM
same,TGI,HCC-2998 colon,> 100 µM
same,TGI,DLD-1 colon,> 100 µM
same,TGI,HT29 colon,> 100 µM
same,TGI,KM20L2 colon,> 100 µM
same,TGI,OVCAR-5 ovarian,> 100 µM
same,TGI,SK-MEL-5 melanoma,> 100 µM
same,TGI,HL-60(TB) leukemia,> 100 µM
same,TGI,K-562 leukemia,> 100 µM
same,TGI,MALME-3M melanoma,> 100 µM
same,TGI,NCI-H460 lung,> 100 µM
same,TGI,NCI-H23 lung,> 100 µM
same,TGI,COLO 205 colon,> 100 µM
same,TGI,SNB-19 CNS,> 100 µM
same,TGI,HCT-116 colon,> 100 µM
same,TGI,TK-10 renal,> 100 µM
same,TGI,U251 CNS,> 100 µM
same,TGI,UACC-62 melanoma,> 100 µM
same,TGI,CCRF-CEM leukemia,> 100 µM
same,TGI,M14 melanoma,> 100 µM
same,TGI,IGROV1 ovarian,> 100 µM
same,TGI,SNB-75 CNS,> 100 µM
same,TGI,OVCAR-4 ovarian,> 100 µM
same,TGI,KM12 colon,> 100 µM
COC1(OC)CC2C(=O)N(Cc3ccccc3)C1C=C2S(=O)(=O)c1ccccc1 (centres undefined),TGI,HOP-62 NSCLC,> 100 µM
same,TGI,SK-OV-3 ovarian,> 100 µM
same,TGI,A498 renal,45 µM
same,TGI,NCI-H226 lung,47.3 µM
same,TGI,EKVX NSCLC,33.1 µM
same,TGI,RXF 393 renal,29 µM
same,TGI,SR leukemia,46.3 µM
same,TGI,DMS 114 small cell lung,31.9 µM
same,TGI,786-0 renal,38.2 µM
same,TGI,XF 498 CNS,31.7 µM
same,TGI,SK-MEL-28 melanoma,31.9 µM
same,TGI,MOLT-4 leukemia,50.3 µM
same,TGI,UACC-257 melanoma,34.5 µM
same,TGI,SN12C renal,30.1 µM
same,TGI,SF-539 CNS,32.7 µM
same,TGI,HOP-18 NSCLC,31.9 µM
same,TGI,RPMI-8226 leukemia,63.1 µM
same,TGI,M19-MEL melanoma,30.4 µM
same,TGI,UO-31 renal,65.1 µM
same,TGI,A549 NSCLC,64.2 µM
same,TGI,OVCAR-8 ovarian,40.5 µM
same,TGI,LOX IMVI melanoma,28.2 µM
same,TGI,SNB-78 CNS,74.4 µM
same,TGI,OVCAR-3 ovarian,28 µM
same,TGI,SF-268 CNS,> 100 µM
same,TGI,LXFL 529 NSCLC,34.2 µM
same,TGI,SF-295 CNS,> 100 µM
same,TGI,ACHN renal,44.4 µM
same,TGI,HOP-92 NSCLC,54.1 µM
same,TGI,HCC-2998 colon,33.6 µM
same,TGI,DLD-1 colon,27.6 µM
same,TGI,HT29 colon,33.8 µM
same,TGI,NCI-H522 lung,27.7 µM
same,TGI,KM20L2 colon,33.1 µM
same,TGI,SK-MEL-5 melanoma,26.7 µM
same,TGI,HL-60(TB) leukemia,36.7 µM
same,TGI,K-562 leukemia,63.2 µM
same,TGI,MALME-3M melanoma,39.6 µM
same,TGI,NCI-H460 lung,38.6 µM
same,TGI,NCI-H23 lung,38.1 µM
same,TGI,COLO 205 colon,22 µM
same,TGI,SNB-19 CNS,54.7 µM
same,TGI,HCT-116 colon,26.7 µM
same,TGI,TK-10 renal,49.1 µM
same,TGI,U251 CNS,29 µM
same,TGI,UACC-62 melanoma,31.3 µM
same,TGI,CCRF-CEM leukemia,44.9 µM
same,TGI,M14 melanoma,35 µM
same,TGI,IGROV1 ovarian,> 100 µM
same,TGI,SW-620 colon,28.5 µM
same,TGI,SNB-75 CNS,93.9 µM
same,TGI,OVCAR-4 ovarian,53.5 µM
same,TGI,KM12 colon,31.6 µM
Cc1ccc(C)c(N=C2NC(=O)C(CC(=O)Nc3ccc(Cl)cc3Cl)S2)c1 (centres undefined),TGI,HOP-62 NSCLC,> 100 µM
same,TGI,SK-OV-3 ovarian,> 100 µM
same,TGI,A498 renal,96.2 µM
same,TGI,NCI-H226 lung,> 100 µM
same,TGI,EKVX NSCLC,> 100 µM
same,TGI,DMS 273 small cell lung,> 100 µM
same,TGI,RXF 393 renal,> 100 µM
same,TGI,DMS 114 small cell lung,> 100 µM
same,TGI,786-0 renal,> 100 µM
same,TGI,SK-MEL-2 melanoma,> 100 µM
same,TGI,XF 498 CNS,90.5 µM
same,TGI,SK-MEL-28 melanoma,> 100 µM
same,TGI,MOLT-4 leukemia,> 100 µM
same,TGI,UACC-257 melanoma,> 100 µM
same,TGI,SN12C renal,> 100 µM
same,TGI,SF-539 CNS,> 100 µM
same,TGI,HOP-18 NSCLC,> 100 µM
same,TGI,RPMI-8226 leukemia,> 100 µM
same,TGI,M19-MEL melanoma,> 100 µM
same,TGI,UO-31 renal,> 100 µM
same,TGI,A549 NSCLC,> 100 µM
same,TGI,OVCAR-8 ovarian,> 100 µM
same,TGI,LOX IMVI melanoma,> 100 µM
same,TGI,OVCAR-3 ovarian,> 100 µM
same,TGI,SF-268 CNS,> 100 µM
same,TGI,LXFL 529 NSCLC,> 100 µM
same,TGI,SF-295 CNS,> 100 µM
same,TGI,ACHN renal,> 100 µM
same,TGI,HCT-15 colon,> 100 µM
same,TGI,HCC-2998 colon,> 100 µM
same,TGI,DLD-1 colon,> 100 µM
same,TGI,HT29 colon,> 100 µM
same,TGI,NCI-H522 lung,56.5 µM
same,TGI,KM20L2 colon,> 100 µM
same,TGI,OVCAR-5 ovarian,> 100 µM
same,TGI,SK-MEL-5 melanoma,> 100 µM
same,TGI,HL-60(TB) leukemia,> 100 µM
same,TGI,K-562 leukemia,> 100 µM
same,TGI,MALME-3M melanoma,> 100 µM
same,TGI,NCI-H460 lung,> 100 µM
same,TGI,NCI-H23 lung,> 100 µM
same,TGI,COLO 205 colon,> 100 µM
same,TGI,SNB-19 CNS,> 100 µM
same,TGI,TK-10 renal,> 100 µM
same,TGI,U251 CNS,> 100 µM
same,TGI,UACC-62 melanoma,> 100 µM
same,TGI,CCRF-CEM leukemia,> 100 µM
same,TGI,M14 melanoma,> 100 µM
same,TGI,IGROV1 ovarian,> 100 µM
same,TGI,SW-620 colon,> 100 µM
same,TGI,SNB-75 CNS,> 100 µM
same,TGI,OVCAR-4 ovarian,> 100 µM
same,TGI,KM12 colon,> 100 µM
same,TGI,CAKI-1 renal,> 100 µM
Cc1cccc(C)c1NC(=O)C(=O)C(C(=O)c1ccccc1-c1ccccc1)C1OC(=O)c2ccccc21 (centres undefined),TGI,HOP-62 NSCLC,35.7 µM
same,TGI,SK-OV-3 ovarian,87.6 µM
same,TGI,A498 renal,48.9 µM
same,TGI,NCI-H226 lung,30.3 µM
same,TGI,EKVX NSCLC,65.4 µM
same,TGI,RXF 393 renal,28.4 µM
same,TGI,DMS 114 small cell lung,32.4 µM
same,TGI,786-0 renal,37 µM
same,TGI,SK-MEL-2 melanoma,35.6 µM
same,TGI,XF 498 CNS,30.9 µM
same,TGI,SK-MEL-28 melanoma,61.4 µM
same,TGI,MOLT-4 leukemia,58.1 µM
same,TGI,UACC-257 melanoma,> 100 µM
same,TGI,SF-539 CNS,28.3 µM
same,TGI,RPMI-8226 leukemia,60.1 µM
same,TGI,M19-MEL melanoma,34.7 µM
same,TGI,RXF-631 renal,> 100 µM
same,TGI,UO-31 renal,57.6 µM
same,TGI,A549 NSCLC,72.5 µM
same,TGI,OVCAR-8 ovarian,> 100 µM
same,TGI,LOX IMVI melanoma,45 µM
same,TGI,SNB-78 CNS,> 100 µM
same,TGI,OVCAR-3 ovarian,38 µM
same,TGI,SF-268 CNS,78.4 µM
same,TGI,LXFL 529 NSCLC,27.5 µM
same,TGI,SF-295 CNS,> 100 µM
same,TGI,ACHN renal,> 100 µM
same,TGI,HOP-92 NSCLC,40 µM
same,TGI,HCC-2998 colon,29.7 µM
same,TGI,DLD-1 colon,37.3 µM
same,TGI,HT29 colon,> 100 µM
same,TGI,NCI-H522 lung,24.9 µM
same,TGI,KM20L2 colon,67.7 µM
same,TGI,OVCAR-5 ovarian,48.9 µM
same,TGI,SK-MEL-5 melanoma,33.7 µM
same,TGI,HL-60(TB) leukemia,88.9 µM
same,TGI,K-562 leukemia,> 100 µM
same,TGI,MALME-3M melanoma,33.4 µM
same,TGI,NCI-H460 lung,78.2 µM
same,TGI,NCI-H23 lung,30 µM
same,TGI,COLO 205 colon,37.9 µM
same,TGI,HCT-116 colon,27.8 µM
same,TGI,TK-10 renal,53.7 µM
same,TGI,U251 CNS,30.7 µM
same,TGI,UACC-62 melanoma,36.7 µM
same,TGI,CCRF-CEM leukemia,> 100 µM
same,TGI,M14 melanoma,29.3 µM
same,TGI,IGROV1 ovarian,64.1 µM
same,TGI,SW-620 colon,65.2 µM
same,TGI,SNB-75 CNS,53.4 µM
same,TGI,KM12 colon,48.9 µM
